Where two headings read alike, the source gives them in different places.
Columns and labels:
equine BChE (eqBChE) = molecular target: T1, equine BChE (eqBChE) (Equus caballus, UniProt P81908); test: Ellman's spectrophotometric method, percent inhibition of eqBChE (zero time and after 1 h incubation); assay type: biochemical; settings: read-out: % Inhibition vs. eqBChE ± SD; for inhibition at 9 µM: [I] 9 µM
T1 construct: purchased Sigma-Aldrich (Milan, Italy)
Description: Regarding the synthesized compounds enzymatic inhibition studies were carried out on Electrophorus electricus AChE (EeAChE) and equine BChE (eqBChE), according to Ellman’s spectrophotometric method.
All other chemical and biological reagents and solvents used were of the highest analytical, commercially available grade. The water, utilized for the preparation of the phosphate buffer and of the solutions of compounds, was distilled and filtered on nylon membrane filters with 0.2 μm pore size with the Millipore® Filtration apparatus before each use. Micropipettes Labmate (BRAND Dig. 10–100 μL; Dig. 100–1000 μL; Dig. 0.1–2 μL) and Transferpette (HIGH TECH LAB LM200: 20–200 μL; LM5000: 1000–5000 μL) were used to collect the samples. The assays were carried out by double beam UV–Vis Lambda 40 Perkin Elmer spectrophotometer, using optical polystyrene cuvettes (10 × 10 × 45 mm, 340–800 nm optical transparency), each measure was repeated at least in triplicate. […] Vivaspin® 2 Sartorius, with a membrane of 3000 MWCO (molecular weight cutoff) consisting of polyethersulfone (PES), cellulose triacetate (CTA) and hydrosart, was used for the ultrafiltration procedures. An ALC PK110 bench-top centrifuge was used for centrifugation. The spectrophotometric method of Ellman, with minor modifications, was used to evaluate the inhibition of cholinesterase enzymes. […] EeAChE and eqBChE were periodically tested to evaluate the effective enzymatic activity.
An amount of 3.0 mL of a solution in 0.1 M phosphate buffer (pH = 7.4) containing DTNB (0.25 mM) and EeAChE (0.083 UmL^−1) or eqBChE (0.083 UmL^−1) were placed in a polystyrene cuvette of 1.0 cm path length; 1 µL of a solution in DMSO of the tested compound was added to obtain in cuvette concentration range 9 µM–0.09 µM. With this solution the blank was made.
Each experiment was repeated at least in triplicate.
The cuvettes were prepared consecutively at intervals of 3 min to allow equal incubation times.

[1] = Chelation studies: UV-Vis titration and Job's plot; assay type: physicochemical; settings: for chelating ability on the biometals Fe^3+, Cu^2+ and Zn^2+: UV-Vis spectra in MeOH, ligand/metal ratio 1:3, 1:5 or 1:10
Description: Initially, the UV–Vis spectrum of the ligand was recorded and compared with the spectra obtained by adding an excess of metal to the ligand solution, maintaining the same concentration of the ligand (ligand/metal ratio 1:3, 1:5 or 1:10). The variation of the UV–Vis spectrum of the ligand in presence of metal ions is indicative of the formation of the complex. […] As previously supposed, the chelating activity of these compounds is due to the presence of two adjacent nitrogen atoms in the 2-amino-pyridine moiety.
UV–Vis titrations of these compounds were carried out with the metal ions with which they form complexes, recording first the UV–Vis spectrum of the ligand and then the spectra obtained by mixing solutions of ligand and metal according to increasing metal/ligand molar ratios (Figure 7a).
The stoichiometries of metal–ligand complexes were determined through Job’s method.
The mole fraction X, which causes the maximum variation of absorbance, is extracted from the graph and then the value of the coefficient n, which corresponds to the number of ligand molecules per cation, is obtained (Figure 7b). The UV–Vis titrations spectra and the Job’s plots of all tested compound are reported in the Supplementary Materials (Figures S8–S17), while the data extrapolated from Job’s plots are summarized in Table 5.
For the UV–Vis titration, solutions 10^−3 M in MeOH of compounds 12, 14 and 18 were prepared. […]. UV–Vis spectra were recorded from 210 to 450 nm.
For the first measure, 150 µL of ligand solution were diluted in 2.85 mL of MeOH into sample cuvette, while only MeOH was placed in reference cuvette and the UV–Vis spectrum was recorded. For subsequent measurements, 2.85 mL of the opportune metal solution were placed both in a sample cuvette and in a reference cuvette; then 150 µL of ligand solution were added to a sample cuvette, while 150 µL of MeOH were added to the reference cuvette and the UV–Vis spectra were recorded. The spectra thus obtained were superimposed to observe the variations present between the ligand alone and in presence of increasing amount of metal.
To determine the stoichiometric coefficients of the complexes, Job’s method was used, which requires the mixing, in appropriate proportions, of the equimolar solution of metal ion and ligand, so that the final volume and the total moles present in the cuvette are equal for each measurement. The absorbance values were recorded at the wavelengths, extrapolated from the UV–Vis titration spectra, where the maximum variation of absorbance was observed. At the same time two solutions in MeOH of equal concentration were prepared, one of ligand and one of metal ion, diluting the solutions 1 M of CuSO4·5H2O and Zn(NO3)2·6H2O and 0.1 M of FeCl3·6H2O previously prepared. The concentrations of the solutions used and the wavelengths in which the absorbance was recorded were: 2.96·10^−4 M for 12 and Fe^3+–251, 320 nm; 2.83·10^−4 M for 14 and Fe^3+–250, 310 nm; 2.90·10^−4 M for 18 and Fe^3+–245, 310 nm; 6.00·10^−4 M for 18 and Cu^2+–330 nm.
For each determination 9–20 measurements were made, introducing the appropriate volumes of metal and ligand solutions in the sample cuvette to obtain mole fractions of the ligand in the range 0.1–0.9, while appropriate volumes of ligand solution and MeOH were placed in the reference cuvette, to obtain the same concentration of ligand in the sample cuvette. The absorbance values of the metal ion, calculated by the Lambert–Beer relation, known the extinction coefficients ε of the metal ion at used wavelengths and the nominal concentrations of the metal ion for each measure, were algebraically subtracted from the recorded absorbance values, in order to obtain the exclusive absorbance variations due to the complex formation. […]

[2] = [I] 900 nM, 0.0833 U/mL enzyme, 100 µM acetylthiocholine
[3] = 0.0833 U/mL enzyme, 100 µM acetylthiocholine

T1 sequence (P81908 whole entry): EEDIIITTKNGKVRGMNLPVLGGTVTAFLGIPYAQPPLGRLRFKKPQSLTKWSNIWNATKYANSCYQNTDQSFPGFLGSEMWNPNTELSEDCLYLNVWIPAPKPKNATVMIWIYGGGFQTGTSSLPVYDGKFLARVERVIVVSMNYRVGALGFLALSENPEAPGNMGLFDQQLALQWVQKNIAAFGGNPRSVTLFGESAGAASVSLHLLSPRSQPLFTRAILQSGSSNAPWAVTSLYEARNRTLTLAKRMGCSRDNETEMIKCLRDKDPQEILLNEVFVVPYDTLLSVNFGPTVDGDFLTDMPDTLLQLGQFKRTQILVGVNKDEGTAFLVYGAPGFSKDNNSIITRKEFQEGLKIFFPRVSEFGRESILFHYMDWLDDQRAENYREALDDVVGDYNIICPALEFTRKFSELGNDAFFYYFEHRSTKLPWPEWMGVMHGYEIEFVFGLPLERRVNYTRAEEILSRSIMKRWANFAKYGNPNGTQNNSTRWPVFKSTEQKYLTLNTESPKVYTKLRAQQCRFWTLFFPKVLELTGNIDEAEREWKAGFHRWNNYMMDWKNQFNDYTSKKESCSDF

Structure (SMILES) | inhibition at 0.9 µM (equine BChE (eqBChE); [2]) [%] | inhibition at 9 µM (equine BChE (eqBChE); [3]) [%] | X (mole fraction that causes the maximum variation of absorbance), Fe^3+ ([1]; Job's plot) | n (number of ligand molecules per cation), Fe^3+ ([1]; Job's plot) | chelating ability on the biometals Fe^3+, Cu^2+ and Zn^2+ [1] | inhibition at 0.9 µM (equine BChE (eqBChE); 1 h, [I] = 900 nM, t = 1 h incubation at 25 °C) [%] | X (mole fraction that causes the maximum variation of absorbance), Cu^2+ ([1]; Job's plot, Cu^2+) | n (number of ligand molecules per cation), Cu^2+ ([1]; Job's plot, Cu^2+)
O=C(NCCCCCCNc1ccccn1)c1ccccc1 [Compound 12, N-(6-(pyridin-2-ylamino)hexyl)benzamide] | 22 | 81 | 0.69 | 2 | ability to chelate Fe^3+ and Cu^2+ ions |  |  | 
O=C(Cc1ccc(Oc2ccccc2)cc1)NCCCCCCNc1ccccn1 [Compound 14, 2-(4-phenoxyphenyl)-N-(6-(pyridin-2-ylamino)hexyl)acetamide] | 45 | 88 | 0.70 | 2 | ability to chelate Fe^3+ and Cu^2+ ions |  |  | 
O=C(NCCCCCCNc1ccccn1)Oc1ccccc1 [Compound 18, Phenyl (6-(pyridin-2-ylamino)hexyl)carbamate] |  |  | 0.69 | 2 | ability to chelate Fe^3+ and Cu^2+ ions | 79.6 ± 5.3 | 0.49 | 1

Reference: PMC9227096, “Design, Synthesis, and In Vitro, In Silico and In Cellulo Evaluation of New Pyrimidine and Pyridine Amide and Carbamate Derivatives as Multi-Functional Cholinesterase Inhibitors” (Pharmaceuticals, 2022)
